Results reported in patent publication US10183013B2, “Cyclic sulfonamide containing derivatives as inhibitors of hedgehog signaling pathway” (NantBioScience, Inc., priority 2012, dated 2019).
Where two headings read alike, the source gives them in different places. Values belong to the molecule of their own block, whether it stands above or below them.

Assays:
[1] = system: Hedgehog signalling (Gli-bla NIH3T3 cells, mShh stimulated); test: Hedgehog signalling inhibition assay (Gli-Bla reporter assay in NIH 3T3 cells); type: cell-based
Description: Hedgehog signalling inhibition assays. The following table 2 represents the average EC50 values for particular compounds of the inventions. Gli-bla NIH3T3 cells (7500 cells/well) were plated the day prior to the assay in a 384-well and 96-format in complete growth medium. […] Cells were stimulated with mShh for 24 hours and then loaded with LiveBLAzer™-FRET B/G Substrate for 3 hours. Emission values at 460 nm and 530 nm were obtained using a standard fluorescence plate reader and the 460/530 Ratios plotted for each treatment (n=4 for each data point).
J. Cancer, 2011, 30(7):472-81).

SMO = target: T1, SMO (Homo sapiens, UniProt Q99835); test: SMO BODIPY-CYC binding assay using HEK293H cells
T1 construct: host or cells: HEK293H cells

[2] = Mus musculus, NIH3T3, 24 h, read-out: EC50

T1 sequence (Q99835 28-787): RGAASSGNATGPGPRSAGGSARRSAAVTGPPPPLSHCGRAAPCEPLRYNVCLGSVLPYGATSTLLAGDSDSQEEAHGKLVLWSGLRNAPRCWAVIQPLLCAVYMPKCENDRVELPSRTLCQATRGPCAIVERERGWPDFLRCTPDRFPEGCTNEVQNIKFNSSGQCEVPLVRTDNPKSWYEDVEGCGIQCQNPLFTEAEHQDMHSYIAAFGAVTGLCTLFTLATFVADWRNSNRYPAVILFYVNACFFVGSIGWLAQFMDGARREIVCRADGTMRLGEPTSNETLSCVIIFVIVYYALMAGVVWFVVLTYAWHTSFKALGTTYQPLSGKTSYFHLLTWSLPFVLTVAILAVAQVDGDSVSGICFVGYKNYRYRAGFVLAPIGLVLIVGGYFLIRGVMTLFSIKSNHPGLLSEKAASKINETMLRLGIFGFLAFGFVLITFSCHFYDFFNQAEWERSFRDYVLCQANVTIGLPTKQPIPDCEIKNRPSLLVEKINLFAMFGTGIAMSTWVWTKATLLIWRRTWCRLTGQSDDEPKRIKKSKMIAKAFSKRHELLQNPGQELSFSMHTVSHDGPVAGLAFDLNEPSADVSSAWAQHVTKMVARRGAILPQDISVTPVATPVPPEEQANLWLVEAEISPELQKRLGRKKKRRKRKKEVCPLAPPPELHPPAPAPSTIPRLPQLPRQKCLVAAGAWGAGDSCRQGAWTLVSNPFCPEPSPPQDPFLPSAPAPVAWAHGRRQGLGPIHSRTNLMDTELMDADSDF

SMILES: O=C(Nc1ccc(Oc2cccc(Cl)c2)cc1)c1ccc(N2CCCS2(=O)=O)cc1Cl [Example 141]
EC50 [1, 2]: < 10 nM

SMILES: O=C(Nc1ccc(Oc2cccc(Cl)c2)cc1)c1ccc(N2CCOCS2(=O)=O)cc1Cl [Example 142]
EC50 [1, 2]: < 10 nM

SMILES: CC(=O)Nc1cc(NC(=O)c2ccc(N3CCOCS3(=O)=O)cc2Cl)ccc1Cl [Example 143]
EC50 [1, 2]: < 10 nM

SMILES: CS(=O)(=O)c1ccc(C(=O)Nc2ccc(Cl)c(-c3ccccn3)c2)c(Cl)c1 [GDC-0449, reference compound]
EC50 ([1]; Mus musculus, NIH3T3, NIH 3T3 cells, read-out: Gli-Bla reporter assay (EC50)): 7 nM

EC50 (SMO): 0.592 nM
SMILES: Cc1nn(-c2ccccc2)c(C)c1/C=N/N1CCN(Cc2ccccc2)CC1 [Sant-1, reference compound]
EC50 ([1]; NIH 3T3 cells, read-out: Gli-Bla reporter assay (EC50)): 5 nM
